# Experiments:
# [1] = target: T1, rNaGLT1 (Rattus norvegicus, UniProt Q80T22, M166I/S3F); assay: Uptake of [14C] fructose by HEK293 cells transfected with rNaGLT1; type: cell-based; conditions: [14C] fructose 0.1 mM, 15 minutes at 37° C., glucose analog 30 mM, phloridzin or phloretin 50 μM; for Uptake of [14C] fructose by HEK293 cells expressing rNaGLT1: vector uptake deducted
# T1 construct: expressed in transfected cells; host or cells: HEK293 cells, transient transfection, assayed 2 days later
# T1 sequence (Q80T22 1-484 S3F/M166I): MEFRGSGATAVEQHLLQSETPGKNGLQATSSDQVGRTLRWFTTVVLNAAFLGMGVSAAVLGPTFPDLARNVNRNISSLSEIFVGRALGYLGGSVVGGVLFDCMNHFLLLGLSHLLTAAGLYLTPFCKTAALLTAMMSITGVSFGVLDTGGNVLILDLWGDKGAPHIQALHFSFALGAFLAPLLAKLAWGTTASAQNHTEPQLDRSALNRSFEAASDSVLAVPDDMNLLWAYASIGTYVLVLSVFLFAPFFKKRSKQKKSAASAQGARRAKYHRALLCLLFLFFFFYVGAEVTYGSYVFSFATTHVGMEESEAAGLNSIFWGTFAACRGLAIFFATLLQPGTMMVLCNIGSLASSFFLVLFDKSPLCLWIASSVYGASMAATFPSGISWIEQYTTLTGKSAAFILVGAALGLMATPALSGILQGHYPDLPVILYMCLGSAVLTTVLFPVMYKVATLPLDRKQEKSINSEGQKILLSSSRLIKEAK
# [2] = test system: renal brush border membrane vesicles; assay: Na+-dependent uptake of [14C] fructose by renal brush border membrane vesicles; type: biochemical, rat; conditions: [14C] fructose 2 mM, 15 seconds at 25° C., glucose analog 30 mM, phloridzin or phloretin 50 μM; for Na+-dependent uptake of [14C] fructose by renal brush border membrane vesicles: KCl uptake deducted
# [3] = target: T2, NaGLT1 (Rattus norvegicus, UniProt Q80T22, M166I/S3F); assay: Effect of inhibitors on uptake of [14C]-labeled αMeGlc by NaGLT1-expressing oocytes; type: cell-based
# T2 construct: expressed in transfected cells; host or cells: Xenopus oocytes injected with NaGLT1 RNA synthesized in vitro
# T2 sequence (Q80T22 1-484 S3F/M166I): T1 sequence (Q80T22 1-484 S3F/M166I)
# Experimental: (§1) Uptake activity of NaGLT1 cRNA-injected cell and water-injected oocyte to [U-^14C]-α-methyl-D-glucopyranoside (α-MeGlc), D-[1-^14C] galactose, D-[U-^14C] mannose, D-[U-^14C] fructose, [1,2-^3H]-2-deoxy-glucose, D-[1-^3H] mannitol, [U-^14C] sucrose was measured. At that time, incubation was conducted in a buffer solution comprising 96 mM NaCl, 2 mM KCl, 1.8 mM CaCl2, 1 mM MgCl2, 5 mM HEPES (pH 7.4). Further, when extracellular Na^+ concentration dependency was conducted, the concentration of NaCl was adjusted to be within the range of 9.6 to 96 mM, and the final osmotic pressure was kept constant by making up for the shortage to 96 mM with choline chloride (FIGS. 6 and 7).
# [4] = target: T2, NaGLT1; assay: Uptake of radio-labeled saccharides by NaGLT1-expressing Xenopus oocytes; type: cell-based
# Experimental: Transportation activity of NaGLT1 was examined with the expression system of Xenopus oocytes (hereinafter abbreviated as oocytes). First, in order to examine the selectivity of various saccharides, NaGLT1 RNA synthesized in vitro was injected into the oocyte and incubated for 2 days at 18° C., then used for the experiment.
# as §1
# Next, concentration dependency of αMeGlc uptake was examined by using NaGLT1-expressing oocytes. […] In addition, the effect of extracellular Na^+ ion concentration on the uptake of αMeGlc mediated by NaGLT1 was analyzed. First, extracellular Na^+ concentration was varied from 0 to 96 mM, at the state wherein membrane potential difference was eliminated by the addition of 7 μM valinomycin, and the effect of extracellular Na^+ on the uptake of αMeGlc by rNaGLT1 was examined. […] Further, by examination of dose- or extracellular Na^+-dependancy to the uptake of αMeGlc by rNaGLT1 (FIGS. 6A and 6C), Vmax value (the maximum transport rate) and Km value were calculated for each case. Based on those values, Hill plot (logarithmic values of the figure calculated by dividing Vmax by transport rate V when the abscissa axis is the concentration of varied substrate or ion, and ordinate axis is each substrate (or ion) concentration) was conducted (FIGS. 6B and 6D) and Hill coefficient was calculated. […]
SMILES,"Uptake of [14C] fructose by HEK293 cells expressing rNaGLT1, % of control [1]",Uptake of [14C] fructose by HEK293 cells expressing rNaGLT1 [1] [Pmol/mg protein/min],effect on the uptake of [14C]-labeled αMeGlc [3],"Hill coefficient ([4]; Hill plot of αMeGlc uptake by rNaGLT1, dose- or extracellular Na+-dependency)","Km ([4]; NaGLT1-expressing oocytes, concentration dependency, read-out: Km value of αMeGlc uptake) [mM]","uptake of radio-labeled saccharide in comparison to water-injected oocytes ([4]; NaGLT1 RNA-injected Xenopus oocytes, incubated 2 days at 18° C.)","Na+-dependent uptake of [14C] fructose by renal brush border membrane vesicles, % of control [2]",Na+-dependent uptake of [14C] fructose by renal brush border membrane vesicles [2] [Pmol/mg protein/sec]
"O=CC[C@@H](O)[C@H](O)[C@H](O)CO [2-DG, 2-deoxyglucose]",70 % of control,2.04 ± 0.19,extremely strong inhibitory effect,,,,34 % of control,16.8 ± 3.7
"CO[C@@H]([C@H](O)[C@H](O)CO)[C@@H](O)C=O [3-OMG, 3-O-methylglucose]",89 % of control,2.60 ± 0.15,no effect,,,,95 % of control,47.1 ± 4.5
O=C[C@H](O)[C@@H](O)[C@H](O)[C@H](O)CO [D-glucose],,,extremely strong inhibitory effect,,,,,
"O=C(CO)[C@@H](O)[C@H](O)[C@H](O)CO [Fructose, fructose]",8 % of control,0.22 ± 0.06,weak inhibitory effect,,,,11 % of control,5.4 ± 2.1
"O=C[C@H](O)[C@@H](O)[C@@H](O)[C@H](O)CO [Galactose, galactose]",99 % of control,2.88 ± 0.23,no effect,,,,71 % of control,35.2 ± 3.3
O=C[C@@H](O)[C@H](O)[C@@H](O)[C@@H](O)CO [L-glucose],,,no effect,,,,,
"O=C(CCc1ccc(O)cc1)c1c(O)cc(O)cc1O [Phloretin, phloretin]",33 % of control,0.97 ± 0.09,weak inhibitory effect,,,,72 % of control,35.8 ± 3.5

# Further lines, with some results ahead:
"Uptake of [14C] fructose by HEK293 cells expressing rNaGLT1, % of control [1]",Uptake of [14C] fructose by HEK293 cells expressing rNaGLT1 [1] [Pmol/mg protein/min],effect on the uptake of [14C]-labeled αMeGlc [3],"Hill coefficient ([4]; Hill plot of αMeGlc uptake by rNaGLT1, dose- or extracellular Na+-dependency)","Km ([4]; NaGLT1-expressing oocytes, concentration dependency, read-out: Km value of αMeGlc uptake) [mM]","uptake of radio-labeled saccharide in comparison to water-injected oocytes ([4]; NaGLT1 RNA-injected Xenopus oocytes, incubated 2 days at 18° C.)",SMILES,"Na+-dependent uptake of [14C] fructose by renal brush border membrane vesicles, % of control [2]",Na+-dependent uptake of [14C] fructose by renal brush border membrane vesicles [2] [Pmol/mg protein/sec]
40 % of control,1.16 ± 0.16,,,,,"OC[C@H]1O[C@H](CO)[C@@H](O)[C@@H]1O [2,5-AM]",78 % of control,38.6 ± 2.6
12 % of control,,,,,,"O=C(CCc1ccc(O)cc1)c1c(O)cc(O)cc1O[C@@H]1O[C@H](CO)[C@@H](O)[C@H](O)[C@H]1O [Phloridzin, phloridzin]",,
144 % of control,4.20 ± 0.17,,,,,"OC[C@H]1O[C@@](CO)(O[C@H]2O[C@H](CO)[C@@H](O)[C@H](O)[C@H]2O)[C@@H](O)[C@@H]1O [Sucrose, sucrose]",96 % of control,47.3 ± 6.0
42 % of control,1.24 ± 0.13,extremely strong inhibitory effect,1.06,3.71 ± 0.09,significantly high,"CO[C@H]1O[C@H](CO)[C@@H](O)[C@H](O)[C@H]1O [αMeGlc, α-methyl-D-glucopyranoside]",48 % of control,23.8 ± 2.1

# Source: patent US20060116505A1, “Glucose and/or fructose transporter naglt1 and its gene” (priority 2002, published 2006)
